# From patent USRE47302E1 (ONYX THERAPEUTICS INC., priority 2013, dated 2019)
# Like-named read-outs stand apart in the source and are kept apart here.
# Assays:
# [1] = molecular target: T1, proteasome subunit β5 (beta5) (Homo sapiens, UniProt P28074); experiment: Proteasome active-site ELISA (ProCISE), beta5, MOLT-4 lysate; type: biochemical; conditions: MOLT4 lysate, human, 1 h continuous treatment, 25° C.
# T1 construct: Lysate from the human acute lymphoblastic leukemia cell line, MOLT-4; endogenous in cells; host or cells: MOLT-4
# Experimental: (§1) Test compounds were serially diluted in DMSO at 100× concentration, then diluted to 10× in aqueous hypotonic lysis buffer. Lysate from the human acute lymphoblastic leukemia cell line, MOLT-4, was treated for 1 hour at 25° C. with compound at a final 1× concentration. […] Following, lysate was denatured in guanidine hydrochloride, and subunits bound to probe were isolated with streptavidin-conjugated sepharose beads. Individual subunits (e.g., β5, LMP7, LMP2, MECL-1) were probed with subunit-specific primary antibodies, followed by HRP-conjugated secondary antibodies. A chemiluminescent substrate was used to generate signal associated with HRP binding, which was detected on a plate reader. Luminescent signal was normalized to protein content, then, percent activity calculated relative to DMSO-treated controls to generate IC50 curves.
# [2] = Solubility pH 7; conditions: for solubility: pH 7, aqueous buffer
# [3] = molecular target: T2, immunoproteasome subunit LMP7 (Homo sapiens, UniProt P28062); experiment: Proteasome active-site ELISA (ProCISE), LMP7, MOLT-4 lysate; type: biochemical
# T2 construct: Lysate from the human acute lymphoblastic leukemia cell line, MOLT-4; endogenous in cells; host or cells: MOLT-4
# Experimental: as §1
# [4] = MOLT4 lysate, 1 h continuous treatment, 25° C.
# [5] = read-out: ProCISE beta5 MOLT4 lysate Hu 1 h CONT: IC50
# [6] = read-out: ProCISE LMP7 MOLT4 lysate Hu 1 h CONT: IC50, 1 h continuous treatment, 25° C.
Structure (SMILES),IC50 [1],solubility [2],"IC50 [3, 4]","IC50 [1, 5]",Solubility pH 7 (μg/mL) ([2]; pH 7),"IC50 [3, 6]"
"COc1ccc(C[C@H](NC(=O)[C@@H](C)NC(=O)[C@H]2CC[C@@](C)(O)CC2)C(=O)N[C@@H](CC2=CCCC2)C(=O)[C@@]2(C)CO2)cc1 [Compound C-1088, (1s,4S)-N-((R)-1-(((S)-1-(((S)-3-(cyclopent-1-en-1-yl)-1-((R)-2-methyloxiran-2-yl)-1-oxopropan-2-yl)amino)-3-(4-methoxyphenyl)-1-oxopropan-2-yl)amino)-1-oxopropan-2-yl)-4-hydroxy-4-methylcyclohexanecarboxamide]",2250 nM,1410 µg/mL,132 nM,–,–,–
"COc1ccc(C[C@H](NC(=O)[C@H](CO)NC(=O)CN2CCOCC2)C(=O)N[C@@H](CC2=CCCCC2)C(=O)[C@@]2(C)CO2)cc1 [Compound C-1104, (S)-N-((S)-3-(cyclohex-1-en-1-yl)-1-((R)-2-methyloxiran-2-yl)-1-oxopropan-2-yl)-2-((S)-3-hydroxy-2-(2-morpholinoacetamido)propanamido)-3-(4-methoxyphenyl)propanamide]",2210 nM,3270 µg/mL,72.4 nM,–,–,–
"COc1ccc(C[C@H](NC(=O)[C@H](C)NC(=O)CN2CCOCC2)C(=O)N[C@@H](CC2=CCOCC2)C(=O)[C@@]2(C)CO2)cc1 [Compound C-1020, (S)-N-((S)-3-(3,6-dihydro-2H-pyran-4-yl)-1-((R)-2-methyloxiran-2-yl)-1-oxopropan-2-yl)-3-(4-methoxyphenyl)-2-((S)-2-(2-morpholinoacetamido)propanamido)propanamide]",45000 nM,6440 µg/mL,1160 nM,–,–,–
"COc1ccc(C[C@H](NC(=O)[C@@H](C)NC(=O)[C@H]2CC[C@H](O)CC2)C(=O)N[C@@H](CC2CCCC2)C(=O)[C@@]2(C)CO2)cc1O [Compound C-1072, (1r,4R)-N-((R)-1-(((S)-1-(((S)-3-cyclopentyl-1-((R)-2-methyloxiran-2-yl)-1-oxopropan-2-yl)amino)-3-(3-hydroxy-4-methoxyphenyl)-1-oxopropan-2-yl)amino)-1-oxopropan-2-yl)-4-hydroxycyclohexanecarboxamide]",–,–,–,3390 nM,4742.65 μg/mL,39.7 nM
"COc1ccc(C[C@H](NC(=O)[C@H](CO)NC(=O)CN2CCOCC2)C(=O)N[C@@H](CC2=CCCCC2)C(=O)[C@@]2(C)CO2)cc1O [Compound C-1109, (S)-N-((S)-3-(Cyclohex-1-en-1-yl)-1-((R)-2-methyloxiran-2-yl)-1-oxopropan-2-yl)-2-((S)-3-hydroxy-2-(2-morpholinoacetamido)propanamido)-3-(3-hydroxy-4-methoxyphenyl)propanamide]",4090 nM,3820 µg/mL,181 nM,–,–,–
"COc1ccc(C[C@H](NC(=O)[C@@H](CO)NC(=O)[C@H]2CC[C@H](O)CC2)C(=O)N[C@@H](CC2=CCCC2)C(=O)[C@@]2(C)CO2)cc1 [Compound C-1092, (1r,4R)-N-((R)-1-(((S)-1-(((S)-3-(cyclopent-1-en-1-yl)-1-((R)-2-methyloxiran-2-yl)-1-oxopropan-2-yl)amino)-3-(4-methoxyphenyl)-1-oxopropan-2-yl)amino)-3-hydroxy-1-oxopropan-2-yl)-4-hydroxycyclohexanecarboxamide]",2040 nM,3070 µg/mL,29.3 nM,–,–,–
"COc1ccc(C[C@H](NC(=O)[C@@H](C)NC(=O)[C@H]2CC[C@H](O)CC2)C(=O)N[C@@H](CC2=CCCCC2)C(=O)[C@@]2(C)CO2)cc1 [Compound C-1089, (1r,4R)-N-((R)-1-(((S)-1-(((S)-3-(cyclohex-1-en-1-yl)-1-((R)-2-methyloxiran-2-yl)-1-oxopropan-2-yl)amino)-3-(4-methoxyphenyl)-1-oxopropan-2-yl)amino)-1-oxopropan-2-yl)-4-hydroxycyclohexanecarboxamide]",8970 nM,985 µg/mL,57.6 nM,–,–,–
"COc1ccc(C[C@H](NC(=O)[C@H](C)NC(=O)CN2CCS(=O)(=O)CC2)C(=O)N[C@@H](CC2=CCCCC2)C(=O)[C@@]2(C)CO2)cc1 [Compound C-1127, (S)-N-((S)-3-(cyclohex-1-en-1-yl)-1-((R)-2-methyloxiran-2-yl)-1-oxopropan-2-yl)-2-((S)-2-(2-(1,1-dioxidothiomorpholino)acetamido)propanamido)-3-(4-methoxyphenyl) propanamide]",4170 nM,1520 µg/mL,315 nM,–,–,–
COc1ccc(C[C@H](NC(=O)[C@@H](C)NC(=O)C2CCCCC2)C(=O)N[C@@H](Cc2ccccc2)C(=O)[C@@]2(C)CO2)cc1 [Compound C-1188],–,12.1 µg/mL,–,185 nM,–,29.2 nM
COc1ccc(C[C@H](NC(=O)[C@@H](C)NC(=O)C2CCCC2)C(=O)N[C@@H](Cc2ccccc2)C(=O)[C@@]2(C)CO2)cc1 [Compound C-1189],–,22.7 µg/mL,–,476 nM,–,58.5 nM
"C[C@@H](NC(=O)[C@H]1CC[C@H](O)CC1)C(=O)N[C@@H](Cc1ccc2[nH]cnc2c1)C(=O)N[C@@H](CC1CCCC1)C(=O)[C@@]1(C)CO1 [Compound C-1105, (1r,4R)-N-((R)-1-(((S)-3-(1H-benzo[d]imidazol-5-yl)-1-(((S)-3-cyclopentyl-1-((R)-2-methyloxiran-2-yl)-1-oxopropan-2-yl)amino)-1-oxopropan-2-yl)amino)-1-oxopropan-2-yl)-4-hydroxycyclohexanecarboxamide]",3230 nM,5690 µg/mL,49.5 nM,–,–,–
"COc1ccc([C@@H](O)[C@H](NC(=O)[C@H](C)NC(=O)CN2CCOCC2)C(=O)N[C@@H](CC2=CCCCC2)C(=O)[C@@]2(C)CO2)cc1 [Compound C-1082, (2S,3R)-N-((S)-3-(cyclohex-1-en-1-yl)-1-((R)-2-methyloxiran-2-yl)-1-oxopropan-2-yl)-3-hydroxy-3-(4-methoxyphenyl)-2-((S)-2-(2-morpholinoacetamido)propanamido)propanamide]",3530 nM,6130 µg/mL,86.6 nM,–,–,–

# The remaining compounds from weak to strong by IC50 [1], led by results:
IC50 [1],solubility [2],"IC50 [3, 4]","IC50 [1, 5]",Solubility pH 7 (μg/mL) ([2]; pH 7),"IC50 [3, 6]",Structure (SMILES)
1960 nM,2150 µg/mL,38.7 nM,–,–,–,"C[C@@H](NC(=O)[C@H]1CC[C@H](O)CC1)C(=O)N[C@@H](Cc1ccc(C#N)cc1)C(=O)N[C@@H](CC1CCCC1)C(=O)[C@@]1(C)CO1 [Compound C-1103, (1r,4R)-N-((R)-1-(((S)-3-(4-cyanophenyl)-1-(((S)-3-cyclopentyl-1-((R)-2-methyloxiran-2-yl)-1-oxopropan-2-yl)amino)-1-oxopropan-2-yl)amino)-1-oxopropan-2-yl)-4-hydroxycyclohexanecarboxamide]"
1870 nM,2500 µg/mL,541 nM,–,–,–,"COc1ccc(C[C@H](NC(=O)[C@H](C)NC(=O)CN2CCOCC2)C(=O)N[C@@H](CC2CCC2)C(=O)[C@@]2(C)CO2)cc1 [Compound C-1004, (S)-N-((S)-3-cyclobutyl-1-((R)-2-methyloxiran-2-yl)-1-oxopropan-2-yl)-3-(4-methoxyphenyl)-2-((S)-2-(2-morpholinoacetamido)propanamido)propanamide]"
1100 nM,1560 µg/mL,101 nM,–,–,–,"Cc1ccc(C[C@H](NC(=O)[C@H](C)NC(=O)CN2CCOCC2)C(=O)N[C@@H](CC2CCCC2)C(=O)[C@@]2(C)CO2)cc1O [Compound C-1117, (S)-N-((S)-3-Cyclopentyl-1-((R)-2-methyloxiran-2-yl)-1-oxopropan-2-yl)-3-(3-hydroxy-4-methylphenyl)-2-((S)-2-(2-morpholinoacetamido)propanamido)propanamide]"
961 nM,536 µg/mL,360 nM,–,–,–,"COc1ccc(C[C@H](NC(=O)[C@H](C)NC(=O)[C@H]2CCCO2)C(=O)N[C@@H](Cc2ccccc2)C(=O)[C@@]2(C)CO2)cc1 [Compound C-1166, (R)-N-((S)-1-(((S)-3-(4-methoxyphenyl)-1-(((S)-1-((R)-2-methyloxiran-2-yl)-1-oxo-3-phenylpropan-2-yl)amino)-1-oxopropan-2-yl)amino)-1-oxopropan-2-yl)tetrahydrofuran-2-carboxamide]"
335 nM,3200 µg/mL,47.1 nM,–,–,–,"COc1ccc(C[C@H](NC(=O)[C@H](C)NC(=O)CN2CCOCC2)C(=O)N[C@@H](CC2CC=CC2)C(=O)[C@@]2(C)CO2)cc1 [Compound C-1066, (S)-N-((S)-3-(cyclopent-3-en-1-yl)-1-((R)-2-methyloxiran-2-yl)-1-oxopropan-2-yl)-3-(4-methoxyphenyl)-2-((S)-2-(2-morpholinoacetamido)propanamido)propanamide]"
322 nM,256 µg/mL,21.6 nM,–,–,–,"COc1ccc(C[C@H](NC(=O)[C@@H](C)NC(=O)[C@H]2CC[C@@H](O)CC2)C(=O)N[C@@H](CC2=CCCCC2)C(=O)[C@@]2(C)CO2)cc1 [Compound C-1097, (1s,4S)-N-((R)-1-(((S)-1-(((S)-3-(cyclohex-1-en-1-yl)-1-((R)-2-methyloxiran-2-yl)-1-oxopropan-2-yl)amino)-3-(4-methoxyphenyl)-1-oxopropan-2-yl)amino)-1-oxopropan-2-yl)-4-hydroxycyclohexanecarboxamide]"
